This note sets out measurements from US10201527B2, “Benzimidazole derivatives: preparation and pharmaceutical applications” (MEI PHARMA, INC., priority 2003, dated 2019).

The target of one test is HDAC3 (Homo sapiens (Human), UniProt O15379). Put plainly: In vitro HDAC assay, HDAC3. It is filed as biochemical. The note with it: Free base. The method, then:
In Vitro HDAC Assay for Determination of IC50 Values
The assay has been carried out in 96 well format and the BIOMOL fluorescent-based HDAC activity assay has been applied. […] Flur de lys Developer was added and the reaction was incubated for 10 min. Briefly, deacetylation of the substrate sensitizes it to the developer, which then generates a fluorophore (symbol). The fluorophore is excited with 360 nm light and the emitted light (460 nm) is detected on a fluorometric plate reader (Tecan Ultra Microplate detection system, Tecan Group Ltd.).
The analytical software, Prism 3.0 has been used to generate IC50 from a series of data.

The test system of test [1] is acetylated histone 3 [AcH3(lys9/14)] in Colo205 cells. Nature of the test: Histone H3 acetylation assay, ELISA approach. It is filed as cell-based. Particulars: Homo sapiens, COLO 205, read-out: EC50, concentration effective for induction of acetylation of histone 3 ([AcH3(lys9/14)]) signal by 50%, 24 h treatment. A general note: An ELISA detects its analyte on a solid surface through an enzyme-linked reagent.
Description: Histone H3 Acetylation Assay—ELISA Approach
An Enzyme Linked Immunosorbent Assay (ELISA) can be applied to detect and quantify the acetylated histone3 (AcH3) in the protein lysate obtained from cancer cell lines treated with the HDAC inhibitors.
The ELISA assay was developed to detect the level of AcH3 from the Colo205 colon cancer cell line treated with 10 μM HDAC inhibitory compounds. The protein lysates from untreated and treated Colo205 were obtained as previously described. The concentration of protein from lysed cells was determined using the BCA method (Sigma-Aldrich Pte Ltd).
The detection antibody used in this ELISA was donkey anti rabbit conjugated with peroxidase.
Colo205 cells were subsequently treated with HDAC inhibitors at different doses (in duplicates, 9 doses treatment, 4-fold dilutions from 100 μM). After treatment for 24 h, cells were lysed and the protein concentration was determined.
The ELISA plate (immulon 2HB plate, Biolaboratories Pte Ltd) was coated with 4 μg/ml of mouse monoclonal antibody against H3 at 4° C. overnight. […] The absorbance was measured at OD450 nm using Spectromax reader (Molecular Devices Corporation, Sunnyvale, Calif.).
The standard curve was drawn and the concentration of AcH3 [(Lys9/14), μg/ml] in a sample was determined using the Softmax software in Spectromax. The amount of AcH3 in a sample was calculated based on the following formula; […]

HDAC3, sequence (O15379 whole entry): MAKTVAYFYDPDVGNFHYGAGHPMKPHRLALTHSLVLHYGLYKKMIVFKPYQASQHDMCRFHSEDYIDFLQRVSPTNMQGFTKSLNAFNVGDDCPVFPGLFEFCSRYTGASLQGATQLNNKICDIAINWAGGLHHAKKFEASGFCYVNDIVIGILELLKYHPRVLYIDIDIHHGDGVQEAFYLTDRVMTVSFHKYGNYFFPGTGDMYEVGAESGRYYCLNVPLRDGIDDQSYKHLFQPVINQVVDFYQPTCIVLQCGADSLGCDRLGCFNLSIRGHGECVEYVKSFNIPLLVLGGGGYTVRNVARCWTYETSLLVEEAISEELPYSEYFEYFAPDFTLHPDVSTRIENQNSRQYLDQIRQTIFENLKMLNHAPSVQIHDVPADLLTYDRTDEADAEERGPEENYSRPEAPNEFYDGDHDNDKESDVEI

A word on the IC50: it is the concentration at which inhibition is half-maximal. High values mean a need for much substance, low ones inhibition by little substance. `COc1cc(Cn2c(CCc3ccccc3)nc3cc(/C=C/C(=O)NO)ccc32)cc(OC)c1OC` [Compound 2, N-Hydroxy-3-[1-(3,4,5-trimethoxybenzyl)-2-(2-phenyl-ethyl)-1H-benzimidazol-5-yl]-acrylamide] showed an IC50 on HDAC3 of 64 nM. The EC50 in test [1] was determined as 1700 nM.
Regarding `CN(C)CC(C)(C)Cn1c(CCc2ccccc2)nc2cc(/C=C/C(=O)NO)ccc21` [Compound 17, N-Hydroxy-3-[1-(3-Dimethylamino-2,2-dimethyl-proppyl)-2-phenethyl-1H-benzimidazol-5-yl]-acrylamide], the half-inhibitory concentration (IC50) against HDAC3 was determined as 29 nM. Also, the EC50 in test [1] is 1100 nM.
